Measured values as given in patent publication US10947499B2, “Selection of stem cell clones with defined differentiation capabilities” (Research Development Foundation, priority 2009, dated 2021).

Columns and labels:
[1] = system: Rho-associated kinase (ROCK); conditions: cited from earlier work
human ES cells = experiment: Seeding of individualized human ES cells in 96-well plates; format: cell-based; conditions: similar to HA-100 but at 10-fold lower concentration

Cc1cncc2cccc(S(=O)(=O)N3CCCNC[C@@H]3C)c12 [Clone H-1152, (S)-(+)-2-Methyl-1-[(4-methyl-5-isoquinolinyl)sulfonyl]homopiperazine]
potency relative to HA-100 [1]: approximately ten-fold
seeding of individualized human ES cells (human ES cells): very efficient seeding
